# Read-outs that look alike come from different tables or passages of the source.
# Key:
# T. gondii DHFR (tgDHFR) = T. gondii DHFR (tgDHFR) (Toxoplasma gondii, UniProt Q07422); details: for Average DHFR selectivity (h/tg): hDHFR IC50/tgDHFR IC50
# hDHFR = hDHFR (Homo sapiens (Human), UniProt P00374); experiment: DHFR inhibition assay (diaphorase/resazurin coupled, fluorescence of resorufin), human DHFR; assay type: biochemical
# T. cruzi DHFR (tcDHFR) = T. cruzi DHFR (tcDHFR) (Trypanosoma cruzi, UniProt Q27793); experiment: DHFR inhibition assay (diaphorase/resazurin coupled), T. cruzi DHFR; assay type: biochemical; details: for tcDHFR pIC50-DHFR primary assay: Table 12, T. cruzi DHFR; for Average DHFR selectivity (h/tc): hDHFR IC50/tcDHFR IC50
# [1] = molecular target: P. falciparum DHFR (pfDHFR) (Plasmodium falciparum (isolate K1 / Thailand), UniProt P13922); experiment: DHFR inhibition assay (diaphorase/resazurin coupled), P. falciparum DHFR; assay type: biochemical; details: for pfDHFR pIC50-DHFR primary assay: Table 15, P. falciparum DHFR
# T. brucei DHFR (tbDHFR) = T. brucei DHFR (tbDHFR) (Trypanosoma brucei brucei, UniProt Q27783); experiment: DHFR inhibition assay (diaphorase/resazurin coupled), T. brucei DHFR; assay type: biochemical; details: for tbDHFR pIC50-DHFR primary assay: Table 13, T. brucei DHFR; for Average DHFR selectivity (h/tb)*-DHFR IC50: hDHFR IC50/tbDHFR IC50
# L. major DHFR (1mDHFR) = L. major DHFR (1mDHFR) (Leishmania major, UniProt P07382); assay type: biochemical; details: for Average DHFR selectivity (h/lm)*-DHFR IC50: hDHFR IC50/L. major DHFR IC50
# hDHFR, sequence (P00374 whole entry): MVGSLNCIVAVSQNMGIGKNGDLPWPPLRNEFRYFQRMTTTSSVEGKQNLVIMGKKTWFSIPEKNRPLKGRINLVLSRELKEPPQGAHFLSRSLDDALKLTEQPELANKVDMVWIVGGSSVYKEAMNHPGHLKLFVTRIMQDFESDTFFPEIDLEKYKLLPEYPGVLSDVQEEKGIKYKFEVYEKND
smiles,measurement,setting,value
"Nc1ncc(N2CCN(c3cccc(C(F)(F)F)c3)CC2)c(N)n1 [Compound 3, 5-(4-(3-(trifluoromethyl)phenyl)piperazin-1-yl)pyrimidine-2,4-diamine]",tgDHFR pIC50-DHFR primary assay,T. gondii DHFR (tgDHFR),7.21
same,hDHFR pIC50-DHFR primary assay,hDHFR; Table 11,6.27
"Nc1ncc(N2CCN(c3ccccc3)CC2)c(N)n1 [Compound 4, 5-(4-phenylpiperazin-1-yl)pyrimidine-2,4-diamine]",tcDHFR pIC50-DHFR primary assay,T. cruzi DHFR (tcDHFR),7.04
same,pfDHFR pIC50-DHFR primary assay,[1],8.72
same,tgDHFR pIC50-DHFR primary assay,T. gondii DHFR (tgDHFR),6.68
same,tbDHFR pIC50-DHFR primary assay,T. brucei DHFR (tbDHFR),7.50
same,mDHFR pIC50-DHFR primary assay,"L. major DHFR (1mDHFR); Table 14, L. major DHFR",6.30
same,hDHFR pIC50-DHFR primary assay,hDHFR; Table 11,4.90
same,hDHFR pIC50-DHFR primary assay,hDHFR; Table 12,4.90
same,hDHFR pIC50-DHFR primary assay,hDHFR; Table 13,4.90
same,hDHFR pIC50-DHFR primary assay,hDHFR; Table 14,4.90
same,hDHFR pIC50-DHFR primary assay,hDHFR; Table 15,4.90
"Nc1ncc(N2CCN(c3ccc(Cl)cc3)CC2)c(N)n1 [Compound 6, 5-(4-(4-chlorophenyl)piperazin-1-yl)pyrimidine-2,4-diamine]",tgDHFR pIC50-DHFR primary assay,T. gondii DHFR (tgDHFR),7.34
same,hDHFR pIC50-DHFR primary assay,hDHFR; Table 11,5.96
"Cc1cccc(N2CCN(c3cnc(N)nc3N)CC2)c1 [Compound 7, 5-(4-(m-tolyl)piperazin-1-yl)pyrimidine-2,4-diamine]",tgDHFR pIC50-DHFR primary assay,T. gondii DHFR (tgDHFR),7.12
same,hDHFR pIC50-DHFR primary assay,hDHFR; Table 11,5.22
"Nc1ncc(N2CCN(c3ccc(-c4ccccc4)cc3)CC2)c(N)n1 [Compound 12, 5-(4-([1,1′-biphenyl]-4-yl)piperazin-1-yl)pyrimidine-2,4-diamine]",Average DHFR selectivity (h/lm)*-DHFR IC50,L. major DHFR (1mDHFR),29
"Nc1ncc(N2CCN(c3cnc4ccccc4c3)CC2)c(N)n1 [Compound 19, 5-(4-(quinolin-3-yl)piperazin-1-yl)pyrimidine-2,4-diamine]",Average DHFR selectivity (h/lm)*-DHFR IC50,L. major DHFR (1mDHFR),35
"CCCc1nc(N)nc(N)c1N1CCN(c2ccccc2)CC1 [Compound 49, 5-(4-phenylpiperazin-1-yl)-6-propylpyrimidine-2,4-diamine]",pfDHFR pIC50-DHFR primary assay,[1],7.85
same,Average DHFR selectivity (h/pf)*-DHFR IC50,[1]; hDHFR IC50/pfDHFR IC50,806
same,Average DHFR selectivity (h/tg),T. gondii DHFR (tgDHFR),501.19
"CCCc1nc(N)nc(N)c1N1CCN(c2ccc(OC)cn2)CC1 [Compound 60, 5-(4-(5-methoxypyridin-2-yl)piperazin-1-yl)-6-propylpyrimidine-2,4-diamine]",Average DHFR selectivity (h/tg),T. gondii DHFR (tgDHFR),149.75
"Nc1ncc(N2CCN(c3cccc(-c4cccc(F)c4)c3)CC2)c(N)n1 [Compound 64, 5-(4-(3′-fluoro-[1,1′-biphenyl]-3-yl)piperazin-1-yl)pyrimidine-2,4-diamine]",Average DHFR selectivity (h/tg),T. gondii DHFR (tgDHFR),93.86
"Nc1ncc(N2CCN(c3cccc(C4CC4)c3)CC2)c(N)n1 [Compound 66, 5-(4-(3-cyclopropylphenyl)piperazin-1-yl)pyrimidine-2,4-diamine]",tgDHFR pIC50-DHFR primary assay,T. gondii DHFR (tgDHFR),7.54
same,hDHFR pIC50-DHFR primary assay,hDHFR; Table 11,5.79
"N#Cc1cccc(-c2cccc(N3CCN(c4cnc(N)nc4N)CC3)c2)c1 [Compound 67, 3′-(4-(2,4-diaminopyrimidin-5-yl)piperazin-1-yl)-[1,1′-biphenyl]-3-carbonitrile]",Average DHFR selectivity (h/tg),T. gondii DHFR (tgDHFR),77.18
"Nc1ncc(N2CCN(c3cccc(-c4ccnnc4)c3)CC2)c(N)n1 [Compound 73, 5-(4-(3-(pyridazin-4-yl)phenyl)piperazin-1-yl)pyrimidine-2,4-diamine]",tgDHFR pIC50-DHFR primary assay,T. gondii DHFR (tgDHFR),8.22
same,hDHFR pIC50-DHFR primary assay,hDHFR; Table 11,5.96
"Nc1ncc(N2CCN(c3cccc(-c4cncnc4)c3)CC2)c(N)n1 [Compound 74, 5-(4-(3-(pyrimidin-5-yl)phenyl)piperazin-1-yl)pyrimidine-2,4-diamine]",tgDHFR pIC50-DHFR primary assay,T. gondii DHFR (tgDHFR),8.32
same,hDHFR pIC50-DHFR primary assay,hDHFR; Table 11,5.84
"COc1ncc(-c2cccc(N3CCN(c4cnc(N)nc4N)CC3)c2)cn1 [Compound 78, 5-(4-(3-(2-methoxypyrimidin-5-yl)phenyl)piperazin-1-yl)pyrimidine-2,4-diamine]",pfDHFR pIC50-DHFR primary assay,[1],9.15
same,tgDHFR pIC50-DHFR primary assay,"T. gondii DHFR (tgDHFR); Table 11, T. gondii DHFR",8.49
same,tbDHFR pIC50-DHFR primary assay,T. brucei DHFR (tbDHFR),8.68
same,hDHFR pIC50-DHFR primary assay,hDHFR; Table 11,5.92
same,hDHFR pIC50-DHFR primary assay,hDHFR; Table 13,6.05
same,hDHFR pIC50-DHFR primary assay,hDHFR; Table 15,6.04
"COc1ncccc1-c1cccc(N2CCN(c3cnc(N)nc3N)CC2)c1 [Compound 80, 5-(4-(3-(2-methoxypyridin-3-yl)phenyl)piperazin-1-yl)pyrimidine-2,4-diamine]",Average DHFR selectivity (h/tg),T. gondii DHFR (tgDHFR),165.32
"Nc1ncc(N2CCN(c3cccc(-c4cnc(C5CC5)nc4)c3)CC2)c(N)n1 [Compound 86, 5-(4-(3-(2-cyclopropylpyrimidin-5-yl)phenyl)piperazin-1-yl)pyrimidine-2,4-diamine]",Average DHFR selectivity (h/tb)*-DHFR IC50,T. brucei DHFR (tbDHFR),330
"Nc1ncc(N2CCN(c3cccc(-c4ccnc(F)c4)c3)CC2)c(N)n1 [Compound 90, 5-(4-(3-(2-fluoropyridin-4-yl)phenyl)piperazin-1-yl)pyrimidine-2,4-diamine]",Average DHFR selectivity (h/lm)*-DHFR IC50,L. major DHFR (1mDHFR),27
"Cc1ncc(-c2cccc(C3CCN(c4cnc(N)nc4N)CC3)c2)cn1 [Compound 94, 5-(4-(3-(2-methylpyrimidin-5-yl)phenyl)piperidin-1-yl)pyrimidine-2,4-diamine]",tbDHFR pIC50-DHFR primary assay,T. brucei DHFR (tbDHFR),9.05
same,Average DHFR selectivity (h/tb)*-DHFR IC50,T. brucei DHFR (tbDHFR),357
same,hDHFR pIC50-DHFR primary assay,hDHFR; Table 13,6.49
"CCc1ncc(-c2cccc(N3CCN(c4cnc(N)nc4N)CC3)c2)cn1 [Compound 95, 5-(4-(3-(2-ethylpyrimidin-5-yl)phenyl)piperazin-1-yl)pyrimidine-2,4-diamine]",Average DHFR selectivity (h/tg),T. gondii DHFR (tgDHFR),218.78
same,Average DHFR selectivity (h/tb)*-DHFR IC50,T. brucei DHFR (tbDHFR),375
"CN(C)c1ncc(-c2cccc(N3CCN(c4cnc(N)nc4N)CC3)c2)cn1 [Compound 96, 5-(4-(3-(2-(dimethylamino)pyrimidin-5-yl)phenyl)piperazin-1-yl)pyrimidine-2,4-diamine]",Average DHFR selectivity (h/tg),T. gondii DHFR (tgDHFR),115.48
"CNc1ncc(-c2cccc(N3CCN(c4cnc(N)nc4N)CC3)c2)cn1 [Compound 97, 5-(4-(3-(2-(methylamino)pyrimidin-5-yl)phenyl)piperazin-1-yl)pyrimidine-2,4-diamine]",Average DHFR selectivity (h/tg),T. gondii DHFR (tgDHFR),131.33
"Nc1ncc(N2CCN(c3cccc(-c4cnc(N5CCC5)nc4)c3)CC2)c(N)n1 [Compound 98, 5-(4-(3-(2-(azetidin-1-yl)pyrimidin-5-yl)phenyl)piperazin-1-yl)pyrimidine-2,4-diamine]",Average DHFR selectivity (h/tg),T. gondii DHFR (tgDHFR),130.84
same,Average DHFR selectivity (h/lm)*-DHFR IC50,L. major DHFR (1mDHFR),48
"Nc1ncc(N2CCN(c3cccc(-c4cnc(Cl)nc4)c3)CC2)c(N)n1 [Compound 100, 5-(4-(3-(2-chloropyrimidin-5-yl)phenyl)piperazin-1-yl)pyrimidine-2,4-diamine]",Average DHFR selectivity (h/tg),T. gondii DHFR (tgDHFR),197.28
same,Average DHFR selectivity (h/tb)*-DHFR IC50,T. brucei DHFR (tbDHFR),522
"Nc1ncc(N2CCN(c3cccc(-c4ccncn4)c3)CC2)c(N)n1 [Compound 102, 5-(4-(3-(pyrimidin-4-yl)phenyl)piperazin-1-yl)pyrimidine-2,4-diamine]",Average DHFR selectivity (h/tc),T. cruzi DHFR (tcDHFR),103
"Nc1ncc(N2CCN(c3cccc(-c4ncccn4)c3)CC2)c(N)n1 [Compound 103, 5-(4-(3-(pyrimidin-2-yl)phenyl)piperazin-1-yl)pyrimidine-2,4-diamine]",tgDHFR pIC50-DHFR primary assay,T. gondii DHFR (tgDHFR),7.56
same,hDHFR pIC50-DHFR primary assay,hDHFR; Table 11,5.89
"Nc1ncc(N2CCN(c3cccc(-c4cnccn4)c3)CC2)c(N)n1 [Compound 104, 5-(4-(3-(pyrazin-2-yl)phenyl)piperazin-1-yl)pyrimidine-2,4-diamine]",tgDHFR pIC50-DHFR primary assay,T. gondii DHFR (tgDHFR),7.99
same,hDHFR pIC50-DHFR primary assay,hDHFR; Table 11,5.88
Nc1nc(N)c(N2CCN(c3ccccc3)CC2)c(CC2CC2)n1 [Compound 106],Average DHFR selectivity (h/tg),T. gondii DHFR (tgDHFR),218.96
Nc1ncc(N2CCN(c3cccc(-c4cccnn4)c3)CC2)c(N)n1 [Compound 107],Average DHFR selectivity (h/lm)*-DHFR IC50,L. major DHFR (1mDHFR),30
"COc1ccc(N2CCN(c3cnc(N)nc3N)CC2)cc1 [Compound 114, 5-(4-(4-methoxyphenyl)piperazin-1-yl)pyrimidine-2,4-diamine]",Average DHFR selectivity (h/tc),T. cruzi DHFR (tcDHFR),144
"Nc1ncc(N2CCN(c3ccc(C(F)(F)F)cc3)CC2)c(N)n1 [Compound 115, 5-(4-(4-(trifluoromethyl)phenyl)piperazin-1-yl)pyrimidine-2,4-diamine]",Average DHFR selectivity (h/tc),T. cruzi DHFR (tcDHFR),132
"Nc1ncc(N2CCN(c3ccc(F)cc3)CC2)c(N)n1 [Compound 116, 5-(4-(4-fluorophenyl)piperazin-1-yl)pyrimidine-2,4-diamine]",Average DHFR selectivity (h/tc),T. cruzi DHFR (tcDHFR),100
CN(Cc1cnc2nc(N)nc(N)c2n1)c1ccc(C(=O)N[C@@H](CCC(=O)O)C(=O)O)cc1 [Methotrexate],tcDHFR pIC50-DHFR primary assay,T. cruzi DHFR (tcDHFR),8.96

# From US11530198B2, “Compositions and methods for treating infections” (priority 2016, dated 2022)
